Assay [1] concerns human whole blood. As to the kind of experiment: Inhibition of IL-1β induced IL-6 production in whole blood. The class given is cell-based. The conditions noted are these: 100 pM IL-1β. The method, then:
The inhibitory effect of IL-1R-I binding fusion proteins on IL-1β induced IL-6 production in whole blood from individual donors was measured.
Blood from healthy donors was collected 1-3 hours prior to treatment with the IL-1R-I binding fusion proteins (SEQ ID NO:1648-1649). Proteins (IL-1R-I binding fusion proteins or anakinra) were diluted to starting concentration of 500 nM in serum free RPMI (ThermoFisher Scientific, RPMI 1640 Medium, GlutaMAX™ Supplement, Cat. No.: 61870010) and subsequently serially diluted 1:3 in a ten-step dilution series resulting in a concentration range of 500 nM to 25 pM. The IL-1R-I binding fusion polypetides or anakinra were tested in presence of a challenge dose of 100 pM IL-1β. The blood was incubated for 21-23 hours with proteins, followed by harvesting of plasma. Harvested plasma was diluted 2× and IL-6 content was analyzed by using a human IL-6 kit (V-PLEX Human IL-6 Kit Human interleukin-6, MSD) according to manufacturer's recommendations.
IL-6 concentrations (pg/ml) were calculated using a standard curve (provided by the kit) and data was analyzed using XLfit and IC50 values were calculated from the concentration-response curves.

Assay [2] relates to Normal Human Dermal Fibroblasts (NHDF) cells. The assay can be described thus: Inhibition of IL-1β induced IL-6 production in NHDF cells. It is filed as cell-based. Conditions: 3.4 pM IL-1β.
Experimental: The inhibitory effect of IL-1R-I binding fusion proteins on IL-1β induced IL-6 production in Normal Human Dermal Fibroblasts (NHDF) cells was monitored.
Cells were seeded three days prior to treatment with proteins. […] Harvested medium was diluted 41× before IL-6 content was analyzed using a human IL-6 ELISA kit (R&D Systems) according to manufacturer's recommendations. Data was analyzed using XLfit and IC50 values were calculated from concentration-response curves.

Take “Kineret: recombinant form of endogenous IL-1Ra denoted anakinra (Kineret)”: the “IL-1β induced IL-6 release in human whole blood” value in assay [1] is reported as “reduced in a concentration-dependent manner”. For the same substance, in assay [2], the “IL-1β induced IL-6 release from NHDF cells” value is “reduced in a concentration-dependent manner”.

Source of the values: US12116397B2, “IL-IR-I binding polypeptide” (Swedish Orphan Biovitrum AB (publ), priority 2017, dated 2024).
